Experimental data published in patent US10689622B2, “Culture medium for proliferating stem cell, which contains sulfated compound” (AJINOMOTO CO., INC., priority 2012, dated 2020).

Legend:
[1] = system: Human bone marrow-derived mesenchymal stem cells; assay: Mesenchymal stem cell proliferation system (cell number by DNA quantification); details: for number of cells relative to control: mesenchymal stem cells
bFGF [2] = target: T1, bFGF (Homo sapiens, UniProt P09038); assay: Evaluation of bFGF stabilization in Lonza serum-free medium (ELISA); format: biochemical
T1 construct: purchased Lonza (via TAKARA BIO INC.) Ser. No. 00/190,632
T1 sequence (P09038 143-288): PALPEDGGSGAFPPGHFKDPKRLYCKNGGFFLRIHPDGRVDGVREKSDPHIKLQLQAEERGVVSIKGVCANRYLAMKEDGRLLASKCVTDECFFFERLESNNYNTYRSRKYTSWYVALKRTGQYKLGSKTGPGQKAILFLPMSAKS
Description: (§1) A test compound was dissolved in phosphate buffered saline, and diluted 10-fold with a serum-free medium to adjust to the concentrations shown in Table 4 (test sample). The test sample was left standing in a tightly sealed Falcon tube at 37° C. for 7 days (Tables 5 to 8-2) or 3 days (Table 8-3), and the bFGF concentration was quantified by ELISA measurement. A phosphate buffered saline without a test compound was diluted 10-fold with a serum-free medium, and left standing at 37° C. or 4° C. for 7 days or 3 days, and used as a control.
(§2) A commercially available measurement kit (human bFGF ELISA kit, ELH-bFGF-001, Ray Biotech) was used for quantification of bFGF in the medium. The measurement procedures followed the protocol attached to the kit. The bFGF concentration of the serum-free medium was calculated from the analytical curve (conversion formula) drawn from the absorbance of an analytical curve standard solution. The evaluation criteria of Tables 5-8 are as follows:
as §1, with “Table 13” for “Table 4”, “7 days,” for “7 days (Tables 5 to 8-2) or 3 days (Table 8-3),”, “7” for “7 days or 3”
as §2, with “Table 13” for “Tables 5-8”, “follows: […]” for “follows:”

[3] = Measurement of content level of sulfur in test compound (ICP); format: physicochemical; details: for sulfur content Found (inorganic analysis): ICPS-8100, evaluation samples containing 0.01 wt % test compound
Source text: (§3) The content level of sulfur in the sulfated saccharide is generally not less than 5 wt %, preferably not less than 10 wt %, more preferably not less than 15 wt %, and the upper limit is generally not more than 40 wt %, preferably not more than 35 wt %, more preferably not more than 30 wt %. […] Here, the content level of sulfur is a proportion in wt % of sulfur derived only from the sulfate group in sulfated saccharides, which can be measured by a method known in the field (e.g., rhodizonate method, elemental analysis or luminescent spectral analysis).
as §3, with “polymer” for “saccharide”, “wt” for “wt %, preferably not more than 35 wt %, more preferably not more than 30 wt”, “in” for “derived only from”, “the” for “the sulfate group in”, “polymer,” for “saccharides,”, “such as” for “(e.g.,”
The relationship between the content level of sulfur in a test compound (sulfur content) and the cell proliferation promoting effect was examined. The sulfur content was measured using ICPS-8100 manufactured by SHIMADZU CORPORATION and analyzed using ICPS-8000 series Ver1.03. As the reference standard of sulfur, the standard for ICP-MS manufactured by Accu Standard was used. Sulfur reference standard solutions (0, 1, 10, 30, 50 ppm) were prepared, and the sulfur content of the evaluation samples containing 0.01 wt % test compound was measured by an analytical curve method.

bFGF [4] = target: T1, bFGF; assay: Evaluation of bFGF stabilization in Essential 8 medium (ELISA); format: biochemical; details: 37° C. for 7 days
Description: as §2
(§4) A test compound was dissolved in phosphate buffered saline, and diluted 10-fold with a serum-free medium to adjust the concentration shown in Table 4 (test sample). The test sample was left standing in a tightly sealed Falcon tube at 37° C. for 7 days, and the bFGF concentration was quantified by ELISA measurement. A phosphate buffered saline without a test compound was diluted 10-fold with Essential 8 medium or ReproFF2 medium, and left standing at 37° C. or 4° C. for 7 days, and used as a control.
as §2, with “Table 13” for “Tables 5-8”
as §4, with “Table 12” for “Table 4”

[5] = growth of mesenchymal stem cell, control ratio
[6] = Lonza serum-free medium, 37° C. for 7 days, test compound 25 ng/ml
[7] = Lonza serum-free medium, 37° C. for 7 days, test compound 250 ng/ml
[8] = Lonza serum-free medium, 37° C. for 7 days, test compound 25 μg/ml
[9] = Lonza serum-free medium, 37° C. for 7 days, test compound 250 μg/ml
[10] = effectiveness in ELISA evaluation of mesenchymal stem cells (medium), 4° C. control ratio

Substance | effectiveness cells [1, 5] | bFGF concentration relative to that of 4° C. control (ELISA) (bFGF [2]; [6]) | bFGF concentration relative to that of 4° C. control (ELISA) (bFGF [2]; [7]) | bFGF concentration relative to that of 4° C. control (ELISA) (bFGF [2]; [8]) | bFGF concentration relative to that of 4° C. control (ELISA) (bFGF [2]; [9]) | effectiveness ELISA (bFGF [2]; [10]) | sulfur content Found (inorganic analysis) [3] [wt %] | concentration showing a suppressive effect on a decrease in the bFGF concentration of the medium (bFGF [4]) | bFGF concentration relative to that of 4° C. control (ELISA) (bFGF [4]; test compound 250 pg/ml) | bFGF concentration relative to that of 4° C. control (ELISA) (bFGF [4]; test compound 25 ng/ml) | bFGF concentration relative to that of 4° C. control (ELISA) (bFGF [4]; test compound 250 ng/ml) | bFGF concentration relative to that of 4° C. control (ELISA) (bFGF [4]; test compound 25 μg/ml) | bFGF concentration relative to that of 4° C. control (ELISA) (bFGF [4]; test compound 250 μg/ml) | also measured
mannitol SO3Na | ◯ (◯ not leas than 100%) | + (bFGF concentration was not less than 30% and less than 50% relative to that of 4 °C control) | − (bFGF concentration was not less than 10% and less than 30% relative to that of 4 °C control) | + (bFGF concentration was not less than 30% and less than 50% relative to that of 4 °C control) | ++ (bFGF concentration was not less than 50% and less than 70% relative to that of 4 °C control) | ++ (++ 50%<) | 17 | not less than 2.5 μg/ml | x (bFGF concentration was less than 10% relative to that of 4 °C control) | x (bFGF concentration was less than 10% relative to that of 4 °C control) | x (bFGF concentration was less than 10% relative to that of 4 °C control) | +++ (bFGF concentration was not less than 70% relative to that of 4 °C control) | +++ (bFGF concentration was not less than 70% relative to that of 4 °C control) | –
erythritol SO3Na | ◯ (◯ not leas than 100%) | x (bFGF concentration was less than 10% relative to that of 4 °C control) | x (bFGF concentration was less than 10% relative to that of 4 °C control) | x (bFGF concentration was less than 10% relative to that of 4 °C control) | + (bFGF concentration was not less than 30% and less than 50% relative to that of 4 °C control) | + (+ 30%<) | 16 | not less than 25 μg/ml | x (bFGF concentration was less than 10% relative to that of 4 °C control) | x (bFGF concentration was less than 10% relative to that of 4 °C control) | x (bFGF concentration was less than 10% relative to that of 4 °C control) | + (bFGF concentration was not less than 30% and less than 50% relative to that of 4 °C control) | +++ (bFGF concentration was not less than 70% relative to that of 4 °C control) | concentration showing a suppressive effect on a decrease in the bFGF concentration in the medium (bFGF [2]; Lonza serum-free medium, 37° C. for 3 days): not less than 25 μg/ml; bFGF concentration relative to that of 4° C. control (ELISA) (bFGF [2]; Lonza serum-free medium, 37° C. for 3 days, test compound 25 ng/ml): x (bFGF concentration was less than 10% relative to that of 4 °C control); bFGF concentration relative to that of 4° C. control (ELISA) (bFGF [2]; Lonza serum-free medium, 37° C. for 3 days, test compound 250 ng/ml): x (bFGF concentration was less than 10% relative to that of 4 °C control); bFGF concentration relative to that of 4° C. control (ELISA) (bFGF [2]; Lonza serum-free medium, 37° C. for 3 days, test compound 25 μg/ml): ++ (bFGF concentration was not less than 50% and less than 70% relative to that of 4 °C control); bFGF concentration relative to that of 4° C. control (ELISA) (bFGF [2]; Lonza serum-free medium, 37° C. for 3 days, test compound 250 μg/ml): +++ (bFGF concentration was not less than 70% relative to that of 4 °C control)
L-triserine SO3Na | – | x (bFGF concentration was less than 10% relative to that of 4 °C control) | x (bFGF concentration was less than 10% relative to that of 4 °C control) | − (bFGF concentration was not less than 10% and less than 30% relative to that of 4 °C control) | ++ (bFGF concentration was not less than 50% and less than 70% relative to that of 4 °C control) | – | – | – | – | – | – | – | – | effectiveness cells ([1]; summary grade of cell proliferation): ⊚ (not less than 120); number of cells relative to control ([1]; test compound 25 pg/ml): — (100-50); number of cells relative to control ([1]; test compound 250 pg/ml): ◯ (not less than 100); number of cells relative to control ([1]; test compound 25 ng/ml): — (100-50); number of cells relative to control ([1]; test compound 250 ng/ml): — (100-50); concentration showing a suppressive effect on a decrease in the bFGF concentration of the medium (bFGF [2]; Lonza serum-free medium, 37° C. for 7 days): not less than 25 μg/ml; bFGF concentration relative to that of 4° C. control (ELISA) (bFGF [2]; Lonza serum-free medium, 37° C. for 7 days, test compound 250 pg/ml): x (bFGF concentration was less than 10% relative to that of 4 °C control); concentration at which a decrease in the protein amount of FGF is not suppressed (bFGF [2]; as shown in the Examples (methods of Examples I-1 and II-1)): not more than 2.5 μg/ml; effectiveness ELISA (bFGF [2]; summary grade of bFGF stabilization): ++ (bFGF concentration was not less than 50% and less than 70% relative to that of 4 °C control); sulfer content Found (inorganic analysis) [3]: 18; bFGF concentration, 4° C. ctrl ratio (bFGF [4]; test compound 250 pg/ml): x (bFGF concentration was less than 10% relative to that of 4 °C control); bFGF concentration, 4° C. ctrl ratio (bFGF [4]; test compound 25 ng/ml): x (bFGF concentration was less than 10% relative to that of 4 °C control); bFGF concentration, 4° C. ctrl ratio (bFGF [4]; test compound 250 ng/ml): x (bFGF concentration was less than 10% relative to that of 4 °C control); bFGF concentration, 4° C. ctrl ratio (bFGF [4]; test compound 25 μg/ml): ++ (bFGF concentration was not less than 50% and less than 70% relative to that of 4 °C control); bFGF concentration, 4° C. ctrl ratio (bFGF [4]; test compound 250 μg/ml): +++ (bFGF concentration was not less than 70% relative to that of 4 °C control)
